Measured values reported in ChEMBL document CHEMBL3352063, “Transition state mimetics of the Plasmodium export element are potent inhibitors of Plasmepsin V from P. falciparum and P. vivax” (J Med Chem, 2014).
Where “and” joins values, the source holds several entries; their conditions need not be identical. Equal values may be shown once. Square brackets hold non-standard residues; d marks the D form. Peptide text beside a SMILES is read from it. * marks the point of attachment. Sta = CC(C)C[C@H](N)[C@@H](O)CC(=O)O; NHPhenethyl = c1ccc(CCN*)cc1; Bz = O=C(c1ccccc1)*

Tests used:
Cathepsin D = Cathepsin D (Homo sapiens, UniProt P07339); experiment: Inhibition of human cathepsin D assessed as cleavage of wtKAHRP fluorogenic substrate
Plasmodium falciparum = experiment: Antiplasmodial activity against Plasmodium falciparum 3D7 infected in human O positive erythrocyte after 72 hrs; type: functional, organism-based; conditions: 3D7, 72 h
[1] = molecular target: Plasmepsin V (Plasmodium falciparum (isolate 3D7)) (UniProt Q8I6Z5); experiment: Inhibition of plasmepsin V in Plasmodium falciparum trophozoite expressing PfEMP3-GFP infected erythrocyte assessed as PEXEL processing at 20 uM by immunoblotting analysis
Beta-secretase 1 = Beta-secretase 1 (Homo sapiens, UniProt P56817); experiment: Inhibition of human BACE1 assessed as cleavage of TRF substrate
Plasmepsin V [2] = molecular target: Plasmepsin V (Plasmodium falciparum (isolate 3D7), UniProt Q8I6Z5); experiment: Inhibition of Plasmodium falciparum plasmepsin V assessed as cleavage of wtKAHRP fluorogenic substrate
HepG2 = experiment: Cytotoxicity against human HepG2 cells assessed as cell death after 48 hrs by Cell Titer-Glo assay; type: cell-based; conditions: HepG2, 48 h
[3] = molecular target: Plasmepsin V (Plasmodium falciparum (isolate 3D7)) (UniProt Q8I6Z5); experiment: Inhibition of Plasmodium falciparum plasmepsin V assessed as cleavage of wtKAHRP fluorogenic substrate at 1 uM
Plasmepsin V [4] = molecular target: Plasmepsin V (Plasmodium vivax, UniProt A0A0H4FQ60); experiment: Inhibition of Plasmodium vivax plasmepsin V by fluorogenic PEXEL cleavage assay
[5] = molecular target: Plasmepsin V (Plasmodium vivax) (UniProt A0A0H4FQ60); experiment: Inhibition of Plasmodium vivax plasmepsin V at 1 uM by fluorogenic PEXEL cleavage assay
Chain of Plasmepsin V (Plasmodium vivax) (A0A0H4FQ60 as listed by the source): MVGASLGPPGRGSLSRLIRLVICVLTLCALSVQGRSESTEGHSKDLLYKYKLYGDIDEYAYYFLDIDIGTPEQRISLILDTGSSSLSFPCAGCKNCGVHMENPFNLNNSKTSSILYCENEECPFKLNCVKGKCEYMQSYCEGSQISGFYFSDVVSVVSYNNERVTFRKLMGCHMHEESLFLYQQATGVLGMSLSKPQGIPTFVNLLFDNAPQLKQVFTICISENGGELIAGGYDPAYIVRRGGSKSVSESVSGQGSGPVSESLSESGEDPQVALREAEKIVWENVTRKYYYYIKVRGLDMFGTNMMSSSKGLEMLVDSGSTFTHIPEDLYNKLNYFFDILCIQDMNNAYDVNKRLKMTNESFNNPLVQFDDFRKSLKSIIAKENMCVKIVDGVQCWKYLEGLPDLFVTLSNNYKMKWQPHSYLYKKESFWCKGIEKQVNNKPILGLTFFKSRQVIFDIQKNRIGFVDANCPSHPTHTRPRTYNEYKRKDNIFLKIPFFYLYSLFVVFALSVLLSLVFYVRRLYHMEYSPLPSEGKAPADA

Chain of Cathepsin D (P07339 65-162 limits assumed): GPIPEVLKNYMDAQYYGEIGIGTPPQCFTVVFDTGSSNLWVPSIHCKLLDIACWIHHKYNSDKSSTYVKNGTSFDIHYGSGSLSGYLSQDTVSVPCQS
Chain of Cathepsin D (P07339 169-412 limits assumed): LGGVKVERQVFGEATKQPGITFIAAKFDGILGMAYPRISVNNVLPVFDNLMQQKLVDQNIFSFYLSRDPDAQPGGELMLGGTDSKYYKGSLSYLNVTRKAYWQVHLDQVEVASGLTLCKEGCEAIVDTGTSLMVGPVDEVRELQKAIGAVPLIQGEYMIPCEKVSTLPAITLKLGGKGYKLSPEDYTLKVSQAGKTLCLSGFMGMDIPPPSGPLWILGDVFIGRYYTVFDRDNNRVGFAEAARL
Chain of Plasmepsin V (Plasmodium falciparum (isolate 3D7), UniProt Q8I6Z5) (Q8I6Z5 whole entry): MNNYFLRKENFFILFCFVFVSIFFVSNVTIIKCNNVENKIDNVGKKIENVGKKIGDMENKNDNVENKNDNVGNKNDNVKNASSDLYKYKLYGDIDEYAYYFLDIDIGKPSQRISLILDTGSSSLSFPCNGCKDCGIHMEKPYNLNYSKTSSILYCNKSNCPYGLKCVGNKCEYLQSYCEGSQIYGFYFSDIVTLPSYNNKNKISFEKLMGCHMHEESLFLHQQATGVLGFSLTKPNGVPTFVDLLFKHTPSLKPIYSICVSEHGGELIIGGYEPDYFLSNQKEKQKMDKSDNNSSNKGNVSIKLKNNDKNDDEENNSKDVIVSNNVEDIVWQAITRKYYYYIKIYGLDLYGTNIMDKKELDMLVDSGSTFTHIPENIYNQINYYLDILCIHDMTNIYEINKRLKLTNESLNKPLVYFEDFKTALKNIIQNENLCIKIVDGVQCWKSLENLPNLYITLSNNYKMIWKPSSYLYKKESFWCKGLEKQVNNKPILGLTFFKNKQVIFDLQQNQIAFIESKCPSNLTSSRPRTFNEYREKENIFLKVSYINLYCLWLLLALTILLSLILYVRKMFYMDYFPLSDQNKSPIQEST
Chain of Plasmepsin V (Plasmodium falciparum (isolate 3D7)) (Q8I6Z5 whole entry, looked up): as the sequence (Q8I6Z5 whole entry) above
Chain of Beta-secretase 1 (P56817 whole entry): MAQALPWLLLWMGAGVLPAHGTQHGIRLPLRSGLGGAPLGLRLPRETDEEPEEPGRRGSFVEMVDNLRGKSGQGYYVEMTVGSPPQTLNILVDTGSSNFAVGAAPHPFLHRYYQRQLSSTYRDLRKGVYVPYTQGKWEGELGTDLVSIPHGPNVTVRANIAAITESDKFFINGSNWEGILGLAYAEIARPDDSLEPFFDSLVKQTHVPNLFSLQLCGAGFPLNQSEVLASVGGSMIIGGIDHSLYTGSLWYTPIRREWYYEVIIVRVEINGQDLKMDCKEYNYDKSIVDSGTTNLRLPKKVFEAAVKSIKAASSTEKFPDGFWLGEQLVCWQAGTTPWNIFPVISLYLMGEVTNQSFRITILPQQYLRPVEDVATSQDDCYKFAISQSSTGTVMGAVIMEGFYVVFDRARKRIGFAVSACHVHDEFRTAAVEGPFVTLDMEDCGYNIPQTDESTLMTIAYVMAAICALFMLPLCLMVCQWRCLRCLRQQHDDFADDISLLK
Chain of Plasmepsin V (Plasmodium vivax, UniProt A0A0H4FQ60) (A0A0H4FQ60 whole entry): as the sequence (A0A0H4FQ60 as listed by the source) above

SMILES	IC50 (Cathepsin D) [µM]	EC50 (Plasmodium falciparum) [µM]	Activity [1] [OD/mm2]	IC50 (Beta-secretase 1) [µM]	IC50 (Plasmepsin V [2]) [µM]	inhibition [3]	IC50 (Plasmepsin V [4]) [µM]	inhibition [5] [%]	EC50 (HepG2) [µM]
CC[C@H](C)[C@H](NC(=O)[C@H](CCCNC(=N)N)NC(=O)OCc1ccccc1)C(=O)N[C@@H](CC(C)C)[C@@H](O)CC(=O)NC1CCCCC1	0.447	6.8	0.53	> 100	0.026	–	–	–	–
CC(C)C[C@H](NC(=O)[C@@H](NC(=O)[C@H](CCCNC(=N)N)NC(=O)OCc1ccccc1)C(C)C)[C@@H](O)CC(=O)NC1CCCCC1	0.713	9.8	0.24	> 100	0.029	–	–	–	> 50
CC(C)C[C@H](NC(=O)[C@H](C)NC(=O)[C@H](CCCN)NC(=O)OCc1ccccc1)[C@@H](O)CC(=O)NC1CCCCC1	> 100	> 50	0.18	> 100	> 20	–	–	–	> 50
CCN(CC)CCCC(C)Nc1ccnc2cc(Cl)ccc12 (configuration not stated) [CHLOROQUINE]	–	0.003	–	–	–	–	–	–	–
C[C@H](NC(=O)[C@H](CCCNC(=N)N)NC(=O)OCc1ccccc1)C(=O)N[C@@H](CC1CCCCC1)[C@@H](O)CC(=O)NC1CCCCC1	–	–	–	–	> 20	–	–	35	–
CC(C)C[C@H](NC(=O)[C@H](CCCNC(=N)N)NC(=O)OCc1ccccc1)C(=O)N[C@@H](CC(C)C)[C@@H](O)CC(=O)NC1CCCCC1	5.1	8.9	0.26	> 100	0.077	–	–	–	> 50

Continued, in another order:

IC50 (Cathepsin D) [µM]	EC50 (Plasmodium falciparum) [µM]	Activity [1] [OD/mm2]	IC50 (Beta-secretase 1) [µM]	IC50 (Plasmepsin V [2]) [µM]	inhibition [3]	IC50 (Plasmepsin V [4]) [µM]	inhibition [5] [%]	SMILES	EC50 (HepG2) [µM]
> 100	16.3	0.31	> 100	0.378	78%	–	–	CC(C)C[C@H](NC(=O)[C@H](C)NC(=O)[C@H](CCCNC(=N)N)NS(=O)(=O)c1ccccc1)[C@@H](O)CC(=O)NCCc1ccccc1	> 50
32	2.5	2.76	> 100	0.019	–	0.024	–	CC(C)C[C@H](NC(=O)[C@@H](NC(=O)[C@H](CCCNC(=N)N)NS(=O)(=O)Cc1ccccc1)C(C)C)[C@@H](O)CC(=O)NCCc1ccccc1	> 50
> 100	23	0.16	> 100	0.55	81%	–	–	CC(C)C[C@H](NC(=O)[C@H](C)NC(=O)[C@H](CCCNC(=N)N)NC(=O)COCc1ccccc1)[C@@H](O)CC(=O)NCCc1ccccc1	> 50
> 100	–	–	> 100	0.625	89%	–	–	CC(C)C[C@H](NC(=O)[C@H](C)NC(=O)[C@H](CCCNC(=N)N)NS(=O)(=O)Cc1ccccc1)[C@@H](O)CC(=O)NCCc1ccccc1	–
> 100	34.6	0.2	> 100	0.614	54% and 51%	–	–	CC(C)C[C@H](NC(=O)[C@H](C)NC(=O)[C@H](CCCNC(=N)N)NC(=O)OCc1ccccc1)[C@@H](O)CC(=O)NC1CCCCC1	> 50
> 100	–	–	> 100	0.774	62%	–	–	CC(C)C[C@H](NC(=O)[C@H](C)NC(=O)[C@H](CCCNC(=N)N)NC(=O)c1ccccc1)[C@@H](O)CC(=O)NCCc1ccccc1 (Bz-Arg-Ala-[Sta]-NHPhenethyl)	–
